Consider 2 compounds from ChEMBL document CHEMBL4138253, “Synthesis and Biological Evaluation of a Series of Bile Acid Derivatives as FXR Agonists for Treatment of NASH” (ACS Med Chem Lett, 2017).

As usually defined, the Tmax is the time at which the peak concentration occurs. In general, AUC refers to the area under the concentration-time curve, a measure of exposure. As a reminder, the Kp is the ratio of the level in a tissue or fluid to that in plasma or blood. As usually defined, the EC50 is the concentration that produces a half-maximal response. In general, Cmax refers to the highest concentration seen after dosing.

Data set [1] deals with Mus musculus. Put plainly: Tmax in C57BL/6 mouse assessed as tauro-INT-747 level at 10 mg/kg, po administered via gavage. The format is ADME, organism-based. The settings on record: in vivo.
Data set [2] in a line: AUC in C57BL/6 mouse at 10 mg/kg, po administered via gavage. The format is ADME, organism-based. The settings on record: in vivo.
The nature of data set [3]: Drug metabolism in C57BL/6 mouse assessed as ratio of INT-747 level in liver to plasma at 10 mg/kg, po administered as single dose via gavage measured at 3 hrs post dose by LC-MS/MS analysis. In kind it is ADME, organism-based. The settings on record: other tissue.
The nature of data set [4]: Ratio of drug level in C57BL/6 mouse liver to plasma at 10 mg/kg, po administered as single dose via gavage measured at 3 hrs post dose by LC-MS/MS analysis. In kind it is ADME, organism-based.
Data set [5] can be described thus: Drug level in C57BL/6 mouse plasma at 2 mg/kg, po administered as single cassette dose via gavage measured at 3 hrs post dose by LC-MS/MS analysis. In kind it is ADME, organism-based.
The nature of data set [6]: Drug level in C57BL/6 mouse liver at 10 mg/kg, po administered as single dose via gavage measured at 0.5 hrs post dose by LC-MS/MS analysis. The format is ADME, organism-based. The settings on record: in vivo.
Data set [7] deals with T1, Bile acid receptor (Homo sapiens, UniProt Q96RI1).
T1 sequence (Q96RI1 whole entry): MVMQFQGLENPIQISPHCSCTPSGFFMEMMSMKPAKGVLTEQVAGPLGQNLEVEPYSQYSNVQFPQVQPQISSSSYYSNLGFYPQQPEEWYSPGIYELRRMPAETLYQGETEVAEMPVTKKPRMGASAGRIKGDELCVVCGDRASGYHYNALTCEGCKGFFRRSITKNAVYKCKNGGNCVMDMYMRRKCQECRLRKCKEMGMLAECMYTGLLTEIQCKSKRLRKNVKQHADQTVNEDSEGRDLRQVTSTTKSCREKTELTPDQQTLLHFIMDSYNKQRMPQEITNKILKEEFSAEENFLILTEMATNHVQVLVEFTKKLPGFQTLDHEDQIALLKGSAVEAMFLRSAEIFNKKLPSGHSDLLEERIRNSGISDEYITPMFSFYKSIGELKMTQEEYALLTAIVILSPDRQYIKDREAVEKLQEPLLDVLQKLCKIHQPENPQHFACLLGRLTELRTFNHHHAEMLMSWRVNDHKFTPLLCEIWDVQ
Put plainly: Agonist activity at recombinant human Gal4-fused FXR expressed in CHO cells measured after 22 hrs by luciferase reporter gene assay. The format is cell-based. Background: Reporter assays use an easily measured gene product as a stand-in for the process of interest.

Data set [8] concerns the target T2, G-protein coupled bile acid receptor 1 (Homo sapiens, UniProt Q8TDU6).
T2 sequence (Q8TDU6 whole entry): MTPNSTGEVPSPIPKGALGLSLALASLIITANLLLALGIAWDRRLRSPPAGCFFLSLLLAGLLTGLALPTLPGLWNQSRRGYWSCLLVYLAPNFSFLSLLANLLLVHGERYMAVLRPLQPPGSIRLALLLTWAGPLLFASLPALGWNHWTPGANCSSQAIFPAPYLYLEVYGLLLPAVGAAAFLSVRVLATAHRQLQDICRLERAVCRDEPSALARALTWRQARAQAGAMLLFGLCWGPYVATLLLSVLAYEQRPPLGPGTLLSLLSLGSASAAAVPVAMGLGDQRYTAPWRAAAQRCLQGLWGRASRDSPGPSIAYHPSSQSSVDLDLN
The data set is described as follows: Agonist activity at human TGR5 expressed in HEK293 cells assessed as increase in intracellular cAMP level after 1 hr by TR-FRET assay. The format is functional, cell-based. Background: Changes in cAMP serve as a functional read-out for many G protein-coupled receptors.

Data set [9] is described as follows: Drug level in C57BL/6 mouse plasma at 10 mg/kg, po administered as single dose via gavage measured at 3 hrs post dose by LC-MS/MS analysis. The format is ADME, organism-based.
Data set [10] can be described thus: Drug level in C57BL/6 mouse liver at 10 mg/kg, po administered as single dose via gavage measured at 3 hrs post dose by LC-MS/MS analysis. The settings on record: in vivo. The format is ADME, organism-based.
Data set [11] has as its system Mus musculus. The data set is described as follows: Anti-hepatic steatosis activity in HFD/CCl4-induced non-alcoholic hepatic steatosis C57BL/6 mouse model assessed as reduction in triglyceride level administered once daily via oral gavage for 28 days measured at post last dose by […] assay. In kind it is ADME, organism-based. The settings on record: in vivo, 672 h.

Data set [12] is described as follows: Cmax in C57BL/6 mouse at 10 mg/kg, po administered via gavage. The format is ADME, organism-based. Further details: dose 10 mg/kg, route oral. The settings on record: in vivo.
A short description of data set [13]: Ratio of drug level in liver to plasma in C57BL/6 mouse at 2 mg/kg, po administered as single cassette dose via gavage measured at 3 hrs post dose. In kind it is ADME, organism-based.
In data set [14] the test system is Mus musculus. Put plainly: Cmax in C57BL/6 mouse assessed as glyco-INT-747 level at 10 mg/kg, po administered via gavage. In kind it is ADME, organism-based. Further details: dose 10 mg/kg, route oral. The settings on record: in vivo, BLD = below limit of detection.
The subject of data set [15] is Mus musculus. Put plainly: AUC in C57BL/6 mouse assessed as INT-747 level at 10 mg/kg, po administered via gavage. In kind it is ADME, organism-based. The conditions noted are these: in vivo.
The subject of data set [16] is Mus musculus. Put plainly: AUC in C57BL/6 mouse assessed as tauro-INT-747 level at 10 mg/kg, po administered via gavage. The settings on record: in vivo. In kind it is ADME, organism-based.
Data set [17] in a line: Drug level in C57BL/6 mouse liver at 2 mg/kg, po administered as single cassette dose via gavage measured at 3 hrs post dose by LC-MS/MS analysis. In kind it is ADME, organism-based. The conditions noted are these: in vivo.
Data set [18] is described as follows: Drug metabolism in C57BL/6 mouse liver assessed as INT-747 level at 10 mg/kg, po administered as single dose via gavage measured at 0.5 hrs post dose by LC-MS/MS analysis. In kind it is ADME, organism-based. The settings on record: in vivo.
Data set [19] is described as follows: Ratio of drug level in C57BL/6 mouse liver to plasma at 10 mg/kg, po administered as single dose via gavage measured at 0.5 hrs post dose by LC-MS/MS analysis. The format is ADME, organism-based.
A short description of data set [20]: Drug level in C57BL/6 mouse plasma at 10 mg/kg, po administered as single dose via gavage measured at 0.5 hrs post dose by LC-MS/MS analysis. The format is ADME, organism-based.
For data set [21], the system named is Mus musculus. The data set is described as follows: Cmax in C57BL/6 mouse assessed as INT-747 level at 10 mg/kg, po administered via gavage. The format is ADME, organism-based. Details: dose 10 mg/kg, route oral. The settings on record: in vivo.
Data set [22] is described as follows: Drug metabolism in C57BL/6 mouse liver assessed as INT-747 level at 10 mg/kg, po administered as single dose via gavage measured at 3 hrs post dose by LC-MS/MS analysis. The settings on record: in vivo. The format is ADME, organism-based.
Data set [23] deals with Mus musculus. The data set is described as follows: Tmax in C57BL/6 mouse assessed as INT-747 level at 10 mg/kg, po administered via gavage. In kind it is ADME, organism-based. The settings on record: in vivo.
Data set [24] can be described thus: Drug metabolism in C57BL/6 mouse assessed as ratio of INT-747 level in liver to plasma at 10 mg/kg, po administered as single dose via gavage measured at 0.5 hrs post dose by LC-MS/MS analysis. In kind it is ADME, organism-based. The settings on record: other tissue.
A further data set is filed under the species Homo sapiens. The data set is described as follows: Selectivity ratio of EC50 for recombinant human GST-tagged FXR LBD (193 to 472 residues) expressed in baculovirus-infected insect cells to EC50 for human TGR5 expressed in HEK293 cells.
A short description of data set [25]: Drug level in C57BL/6 mouse plasma at 2 mg/kg, po administered as single dose via gavage measured at 0.5 hrs post dose by LC-MS/MS analysis. In kind it is ADME, organism-based.
Data set [26] addresses T3, Bile acid receptor (Homo sapiens) (UniProt Q96RI1).
T3 sequence (whole entry): T1 sequence (Q96RI1 whole entry)
The data set is described as follows: Agonist activity at recombinant human Gal4-fused FXR expressed in CHO cells measured after 22 hrs by luciferase reporter gene assay relative to CDCA. In kind it is cell-based.

Data set [27] relates to Mus musculus. The data set is described as follows: Anti-hepatic steatosis activity in HFD/CCl4-induced non-alcoholic hepatic steatosis C57BL/6 mouse model assessed as reduction in hepatic steatosis score administered once daily via oral gavage for 28 days measured at post last dose by hematoxylin-eosin staining based assay. The settings on record: in vivo, 672 h. The format is ADME, organism-based.

Data set [28] in a line: Tmax in C57BL/6 mouse at 10 mg/kg, po administered via gavage. The conditions noted are these: in vivo. In kind it is ADME, organism-based.
In data set [29] the test system is Mus musculus. Put plainly: Anti-hepatic steatosis activity in HFD/CCl4-induced non-alcoholic hepatic steatosis C57BL/6 mouse model assessed as reduction in liver fibrosis administered once daily via oral gavage for 28 days measured at post last dose by sirus red staining based assay. The format is ADME, organism-based. The conditions noted are these: in vivo, 672 h.

The subject of data set [30] is Mus musculus. Put plainly: AUC in C57BL/6 mouse assessed as glyco-INT-747 level at 10 mg/kg, po administered via gavage. The format is ADME, organism-based. The settings on record: in vivo, BLD = below limit of detection.
Data set [31] in a line: Drug level in C57BL/6 mouse liver at 2 mg/kg, po administered as single cassette dose via gavage measured at 0.5 hrs post dose by LC-MS/MS analysis. The format is ADME, organism-based. The conditions noted are these: in vivo.
In data set [32] the test system is Mus musculus. The data set is described as follows: Cmax in C57BL/6 mouse assessed as tauro-INT-747 level at 10 mg/kg, po administered via gavage. The format is ADME, organism-based. Details: dose 10 mg/kg, route oral. The conditions noted are these: in vivo.
Data set [33] is described as follows: Ratio of drug level in liver to plasma in C57BL/6 mouse at 2 mg/kg, po administered as single cassette dose via gavage measured at 0.5 hrs post dose. The format is ADME, organism-based.
The nature of data set [34]: Drug metabolism in C57BL/6 mouse plasma assessed as INT-747 level at 10 mg/kg, po administered as single dose via gavage measured at 3 hrs post dose by LC-MS/MS analysis. The settings on record: in vivo. The format is ADME, organism-based.
The target of data set [35] is T1, Bile acid receptor. The data set is described as follows: (§1) Agonist activity at human FXR assessed as recruitment of SRC1 peptide by TR-FRET assay. A general note: Time-resolved FRET reads energy transfer from a long-lived donor to a nearby acceptor.
The target in data set [36] is T3, Bile acid receptor (Homo sapiens). The description is as §1.

Each structure is given as a SMILES string.

Take `CC[C@H]1[C@@H](O)[C@@H]2[C@H](CC[C@]3(C)[C@@H]([C@H](C)CCC(=O)NS(C)(=O)=O)CC[C@@H]23)[C@@]2(C)CC[C@@H](O)C[C@@H]12`: the Tmax in the data set on Mus musculus [1] was found to be 480 min; in the data set with Mus musculus [23], 30 min; in data set [28] it was 30 min. The AUC in data set [2] is 1.19 µM·h; with Mus musculus [15], 0.216 µM·h; in the data set with Mus musculus [16] it was 5.416 µM·h; in the data set on Mus musculus [30], “Bld”. The Ratio in [3] is recorded as 12; in [24], 21. Moreover, the results for the Kp at 3 h in data set [4] and in data set [13] were 52 and 124, respectively. In addition, the concentration at 3 h is 15 nM in data set [5] and 298 nM in data set [9]. For the same compound, the Drug uptake was determined as 27920 nmol/kg in data set [6]; 15560 nmol/kg in [10]; 1361 nmol/kg in [17]; 2863 nmol/kg in data set [18]; 1486 nmol/kg in data set [22]; 7183 nmol/kg in [31]. Besides, the values for the EC50 (at Bile acid receptor [7]; in data set [8]) were 50 nM and 700 nM, respectively. Further, the Activity entry in the data set with Mus musculus [11], with Mus musculus [27] and in the data set on Mus musculus [29] was “Dose-dependent effect” each time. Besides, the Cmax in data set [12] was 610 nM; with Mus musculus [14] it was “Bld”; with Mus musculus [21], 446 nM; with Mus musculus [32], 270 nM. In addition, the Kp at 0.5 h in data set [19] and in [33] was 53 each time. For the same compound, the concentration at 0.5 h is 388 nM in data set [20] and 136 nM in [25]. For the same compound, the Ratio EC50 in the data set listed under Homo sapiens was determined as 14. For the same compound, the Efficacy in data set [26] was determined as 191%. The concentration in data set [34] came to 126 nM.

Consider `C[C@H](CCn1oc(=O)[nH]c1=O)[C@H]1CC[C@H]2[C@@H]3[C@H](O)C[C@@H]4C[C@H](O)CC[C@]4(C)[C@H]3CC[C@]12C`, for which, at Bile acid receptor [35], the EC50 came out at 1220 nM. The Efficacy in data set [36] worked out at 111%.
